Measurements published in ChEMBL document CHEMBL1130466, “Benzothiazol-2-ylcarboxylic acids with diverse spacers: A novel class of potent, orally active aldose reductase inhibitors” (Bioorg Med Chem Lett, 1997).

How the values were obtained:
Rattus norvegicus [1] = experiment: Inhibition of sorbitol accumulation in the lens in diabetic rats at peroral dose of 30 mg/kg (curative effect); format: functional; conditions: Lens of camera-type eye, route oral
Rattus norvegicus [2] = experiment: Inhibition of sorbitol accumulation in the sciatic nerve in diabetic rats at peroral dose of 30 mg/kg (curative effect); format: functional; conditions: route oral
Rattus norvegicus [3] = experiment: Percent inhibition of sorbitol accumulation in the sciatic nerve of streptozotocin (STZ)- induced diabetic rats at peroral dose of 30 mg/kg (preventive effect); format: functional; conditions: route oral
Rattus norvegicus [4] = experiment: Percent inhibition of sorbitol accumulation in the lens of streptozotocin (STZ)-induced diabetic rats at peroral dose of 30 mg/kg (preventive effect); format: functional; conditions: Lens of camera-type eye, route oral
[5] = target: Aldo-keto reductase family 1 member B1 (Sus scrofa) (UniProt P80276); experiment: In vitro percent inhibition of porcine lens aldose reductase (AR) at 10e -7 M with DL-glyceraldehyde as the substrate
[6] = target: Aldo-keto reductase family 1 member B1 (Sus scrofa, UniProt P80276); experiment: Inhibitory concentration against porcine lens aldose reductase (AR) with DL-glyceraldehyde as the substrate
Rattus norvegicus [7] = experiment: Percent inhibition of sorbitol accumulation in the lens of streptozotocin (STZ)-induced diabetic rats at peroral dose of 30 mg/kg (curative effect); format: functional; conditions: Lens of camera-type eye, route oral
Rattus norvegicus [8] = experiment: Percent inhibition of sorbitol accumulation in the sciatic nerve of streptozotocin (STZ)- induced diabetic rats at peroral dose of 30 mg/kg (curative effect); format: functional; conditions: route oral

`Cc1cc(CC(=O)O)cc(Cc2nc3c(F)c(F)cc(F)c3s2)c1` was tested, and the ED50 (Rattus norvegicus [1]) was 1.6 mg/kg and the ED50 (Rattus norvegicus [2]) was 0.25 mg/kg.

In the case of `O=C(O)CN(C(=S)CCc1nc2c(F)c(F)cc(F)c2s1)c1ccccc1`, the inhibition in vivo at 30 mg/kg (Rattus norvegicus [3]) is reported as less than 64% and the inhibition in vivo at 30 mg/kg (Rattus norvegicus [4]) is reported as 12%.

For `CN(CC(=O)O)C(=S)CCc1nc2c(F)c(F)cc(F)c2s1`, the inhibition in vivo at 30 mg/kg (Rattus norvegicus [3]) was 48% and the inhibition in vivo at 30 mg/kg (Rattus norvegicus [4]) was 58%.

For `O=C(O)CCCc1nc2c(F)c(F)cc(F)c2s1`, the inhibition [5] was 1%.

With `O=C(O)CN(C(=O)CCc1nc2c(F)c(F)cc(F)c2s1)c1ccccc1` the inhibition in vivo at 30 mg/kg (Rattus norvegicus [3]) was 54% and the inhibition in vivo at 30 mg/kg (Rattus norvegicus [4]) was 80%.

`O=C(O)Cc1cc(Cc2nc3c(F)c(F)cc(F)c3s2)cc(C(=O)O)c1` gave an ED50 (Rattus norvegicus [1]) greater than 10 mg/kg and an ED50 (Rattus norvegicus [2]) greater than 10 mg/kg.

In the case of `O=C(O)CCCCCc1nc2c(F)c(F)cc(F)c2s1`, the IC50 [6] is reported as 50 nM and the inhibition [5] is reported as 71%.

Work on `O=C(O)CCCCc1nc2c(F)c(F)cc(F)c2s1` yielded an inhibition [5] of 35%.

With `O=C(O)Cc1cccc(Cc2nc3c(F)c(F)cc(F)c3s2)c1` the ED50 (Rattus norvegicus [1]) was greater than 10 mg/kg and the ED50 (Rattus norvegicus [2]) was 1.5 mg/kg.

`O=C(O)Cc1ccc(Cc2nc3c(F)c(F)cc(F)c3s2)cc1` was tested, and the IC50 [6] was 38 nM.

For `O=C(O)CN(Cc1ccccc1)C(=O)CCc1nc2c(F)c(F)cc(F)c2s1`, the inhibition in vivo at 30 mg/kg (Rattus norvegicus [3]) was 75% and the inhibition in vivo at 30 mg/kg (Rattus norvegicus [4]) was 54%.

With `O=C(O)Cn1c(=O)n(Cc2ccc(Br)cc2F)c(=O)c2ccc(Cl)cc21` [ZENARESTAT] the inhibition in vivo at 30 mg/kg (Rattus norvegicus [7]) was 21%, the inhibition in vivo at 30 mg/kg (Rattus norvegicus [8]) was 76% and the inhibition in vivo at 30 mg/kg (Rattus norvegicus [3]) was 89%. For the same molecule, the inhibition in vivo at 30 mg/kg (Rattus norvegicus [4]) was 30% and the IC50 [6] was 12 nM.

`O=C(O)CCCCCCc1nc2c(F)c(F)cc(F)c2s1` was tested, and the inhibition [5] was 11%.

`O=C(O)Cc1cc(Br)cc(Cc2nc3c(F)c(F)cc(F)c3s2)c1` gave an ED50 (Rattus norvegicus [1]) of 9.8 mg/kg and an ED50 (Rattus norvegicus [2]) of 0.68 mg/kg.

In the case of `O=C(O)CN(CCc1ccccc1)C(=O)CCc1nc2c(F)c(F)cc(F)c2s1`, the inhibition in vivo at 30 mg/kg (Rattus norvegicus [3]) is reported as 65% and the inhibition in vivo at 30 mg/kg (Rattus norvegicus [4]) is reported as -2%.

`O=C(O)CC1Sc2ccccc2N(Cc2nc3c(F)c(F)cc(F)c3s2)C1=O` (stereo not drawn) showed an ED50 (Rattus norvegicus [1]) greater than 10 mg/kg and an ED50 (Rattus norvegicus [2]) of 1.8 mg/kg.

Molecule `O=C(O)Cc1cc(F)cc(Cc2nc3c(F)c(F)cc(F)c3s2)c1` has an ED50 (Rattus norvegicus [1]) of 10 mg/kg, an ED50 (Rattus norvegicus [2]) of 0.32 mg/kg and an IC50 [6] of 8.8 nM.

`COc1ccc2c(C(=S)N(C)CC(=O)O)cccc2c1C(F)(F)F` [TOLRESTAT] was tested, and the inhibition in vivo at 30 mg/kg (Rattus norvegicus [3]) was 84%, the inhibition in vivo at 30 mg/kg (Rattus norvegicus [4]) was 36% and the IC50 [6] was 16 nM.

`O=C(O)CN(Cc1ccccc1)C(=S)CCc1nc2c(F)c(F)cc(F)c2s1` was tested, and the inhibition in vivo at 30 mg/kg (Rattus norvegicus [3]) was 65% and the inhibition in vivo at 30 mg/kg (Rattus norvegicus [4]) was 23%.

Molecule `O=C(O)Cc1cccc(Cc2nc3c(F)c(F)cc(F)c3s2)c1Cl` has an ED50 (Rattus norvegicus [1]) of 0.71 mg/kg, an ED50 (Rattus norvegicus [2]) of 0.12 mg/kg and an IC50 [6] of 9.3 nM.

With `CN(CC(=O)O)C(=O)CCc1nc2c(F)c(F)cc(F)c2s1` the inhibition in vivo at 30 mg/kg (Rattus norvegicus [3]) was 61% and the inhibition in vivo at 30 mg/kg (Rattus norvegicus [4]) was 30%.

With `CN(C)c1cc(CC(=O)O)cc(Cc2nc3c(F)c(F)cc(F)c3s2)c1.Cl` the ED50 (Rattus norvegicus [1]) was greater than 10 mg/kg, the ED50 (Rattus norvegicus [2]) was 0.53 mg/kg and the IC50 [6] was 12 nM.

`O=C(O)Cc1cc(Cl)cc(Cc2nc3c(F)c(F)cc(F)c3s2)c1` was tested, and the ED50 (Rattus norvegicus [1]) was 7.8 mg/kg, the ED50 (Rattus norvegicus [2]) was 0.46 mg/kg and the IC50 [6] was 7 nM.

Work on `O=C(O)Cc1cc(I)cc(Cc2nc3c(F)c(F)cc(F)c3s2)c1` yielded an ED50 (Rattus norvegicus [1]) greater than 10 mg/kg, an ED50 (Rattus norvegicus [2]) greater than 10 mg/kg and an IC50 [6] of 11 nM.
